Test results from publication PMC10689081 (BMB Reports, 2023).
Entries after “also recorded” stand apart in the source; their conditions may differ.

How the values were obtained:
SARS-CoV-2 Mpro = format: biochemical
Mpro dimer = tested on: Mpro dimer; design: species or system SARS-CoV-2
Solubility in water = format: physicochemical; conditions: Supplementary Fig. 4
[1] = Superose-12 10/300, 0.5 ml/min, buffer D pH 7.5, 298 K (Fig. 1B)

Sequence: SGFRKMAFPS [N10]
- inhibition of Mpro activity (in words) (SARS-CoV-2 Mpro; N10, 1 μM Mpro, 0-500 μM N10, 10 μM substrate, 298 K): also shows inhibitory activity; also recorded: can inhibit the Mpro activity; also recorded: could inhibit the proteolytic activity of Mpro
- inhibitory activity of N10 compared with GC376 (in words) (SARS-CoV-2 Mpro; sub-millimolar concentrations (Fig. 2B)): weaker than that of GC376
- disruption of dimer conformation (conclusion in words) (Mpro dimer): disrupted the dimer conformation
- shift of Mpro dimer peak on adding N10 (Mpro dimer; Superose-12 10/300, 0.5 ml/min, 50 mM Tris-HCl pH 7.5, 1 M NaCl, 10% Glycerol, 1 mM DTT, 298 K (Fig. 1B)): shifted the Mpro dimer peak into a smaller size; also recorded: from dimer to a smaller size, a presumably monomer
- height of the delayed shifted peak compared to the original peak (Mpro dimer; [1]): half-size in height
- shape of the peak of Mpro with N10 (Mpro dimer; [1]): overlapped shape of two peaks of primary and shoulder; also recorded: overlapped uneven two peaks of primary and shoulder
- solubility in water (Solubility in water): soluble in water
